Key:
Type in all cases: in vivo
[1] = tested on: Large Milkweed Bug Oncopeltus fasciatus; assay: Insecticidal assay 6, large milkweed bug, 96-well diet plate; settings: O. fasciatus second instar; 2 microliters of 4-microgram/microliter in DMSO per well on diet; assessed after 6 days at 29° C.
Procedure: 6. Insecticidal Assay for Large Milkweed Bug Oncopeltus fasciatus:
Objective: To assess the insecticidal activity of compounds against O. fasciatus through contact and ingestion.
Test unit preparation: A robotic system dispenses 100 microliters of freshly prepared artificial diet into each well of a 96-well microtiter plate. The plates are held overnight at 22° C. to allow proper cooling and drying prior to treatment and infestation.
(§1) Compound formulation and application: Compounds are formulated in dimethyl sulfoxide at 4-microgram/microliter. A robotic system automatically dispenses 2 microliters of each of the experimental compound solutions into individual wells of the prepared test units. There are 6 replicates per treatment. After application, plates are allowed to dry 5-6 hours in a fume hood. When dry, the plates are covered with a matching lid and held overnight in a sealed container prior to infestation.
Infestation: One day after application, each treated well is infested with 3-5 second instar milkweed bugs.
Holding and assessment: Once infested, the plates are covered with a clear plastic lid. The plates are then stacked and held in an incubator at 29° C. After 6 days, each well is examined by means of a dissecting microscope for insecticidal effect.

[2] = tested on: Root-Knot Nematode Meloidogyne incognita; assay: Insecticidal assay 5, root-knot nematode, 96-well plate with foxtail millet; settings: M. incognita eggs; 5 micrograms of compound per well; soil/polymer media with foxtail millet seeds; assessed after 7 days at 27° C.
Source text: 5. Insecticidal Assay for Root-Knot Nematode Meloidogyne incognita:
Objective: To evaluate the insecticidal activity of compounds against M. incognita through contact and ingestion.
Test unit preparation: Empty, 96-well microtiter plates are loaded onto a robotic dispensing system prior to application.
Formulation and application: A robotic system dispenses 25 microliters of ethanol and 5 micrograms of compound, diluted in dimethyl sulfoxide, into each well of a 96-well flat-bottomed, microtiter plate. There are 3 replicates per treatment. The plates are held 24 hours to allow proper drying prior to further preparation and infestation.
Additional test unit preparation and infestation: After drying, 16 milligrams of media consisting of 2 parts fine soil and 1 part absorbent polymer is added to each well of the treated 96-well plates. Once the media is in place, a 200 microliter aqueous suspension of rootknot nematode eggs is added to each well forming a gelatinous substrate. Into each of these wells are distributed 10 foxtail millet Seteria italica seeds. Following this “planting” an identical plate is sealed to the top of the treated plate to allow space for the millet to grow.
Holding and assessment: Once the lids are in place, the plates are held at 27° C. and 75% relative humidity under bright indirect lights. […]

[3] = tested on: Cabbage Looper Tricoplusia ni; assay: Insecticidal assay 9, cabbage looper, cabbage leaf disc dip; settings: T. ni second instar; cabbage leaf discs dipped in 400 ppm and 25 ppm solutions; assessed 5 days after infestation
Procedure: 9. Insecticidal Assay for Cabbage Looper Tricoplusia ni:
Objective: To assess the insecticidal activity of compounds against T. ni through contact and ingestion.
Formulation and application: Eight milligrams of technical compound is dissolved in 20 milliliters of 2:1 acetone:tap water diluent to form a 400 ppm solution. An aliquot of this solution is also used to prepare a 25 parts per million concentration. 3.5 centimeter diameter leaf discs cut from cabbage leaves are dipped into each solution until thoroughly wet. Each treatment is replicated 10 times. After air-drying, the treated discs are placed individually into one-ounce plastic cups.
Infestation: Once the leaf discs have dried, a single second instar cabbage looper is place on the cabbage disc in each cup.
Holding and assessment: Treated and infested cups or are capped and then held in a chamber at 25° C. and 50% relative humidity, 14-hours light:10-hours dark. 5 days after infestation the larvae are assessed for insecticidal effects.

[4] = tested on: Tobacco Budworm Heliothis virescens; assay: Insecticidal assay 2, tobacco budworm, 96-well diet plate; settings: H. virescens eggs and early instars; 2 microliters of 4 micrograms per microliter in DMSO per well on diet; 200 ppm piperonyl butoxide co-applied; assessed after 6 days at 29° C.
Procedure: 2. Insecticidal Assay for Tobacco Budworm Heliothis virescens:
Objective: To evaluate the insecticidal activity of compounds against H. virescens eggs and early instars through contact and ingestion.
Test unit preparation: A robotic system dispenses 150 microliters of freshly prepared artificial lepidopteran diet into each well of a 96-well microtiter plate. The plates are held overnight at 22° C. to allow proper cooling and drying prior to treatment and infestation.
as §1, with “4-micrograms per microliter.” for “4-microgram/microliter.”, “the” for “the experimental”, “Each treatment is replicated” for “There are”, “times. As part of the application process, a 200 ppm concentration of the commonly used synergist, piperonyl butoxide is co-applied to each well to increase the sensitivity of this assay.” for “replicates per treatment.”
Infestation: One day after application, each treated well is infested with 3-5, tobacco budworm eggs.
Holding and assessment: Once infested, the plates are covered with a clear plastic lid. The plates are stacked and held in an incubator at 29° C. […]

[5] = tested on: Tobacco Budworm Heliothis virescens; assay: Insecticidal assay 8, tobacco budworm, diet cups; settings: H. virescens second instar; 250 microliters of 400 ppm and 25 ppm solutions on diet in cups; assessed 5 days after infestation
Procedure: 8. Insecticidal Assay for Tobacco Budworm Heliothis virescens:
Objective: To assess the insecticidal activity of compounds against H. virescens through contact and ingestion.
Test unit preparation: 8 milliliters of lepidopteran diet is dispensed into one ounce clear plastic portion cups. The diet is allowed to cool before storage or use.
Formulation and application: Eight milligrams of technical compound is dissolved in 20 milliliters of 2:1 acetone:tap water diluent to form a 400 ppm solution. An aliquot of this solution is also used to prepare a 25 parts per million concentration. 250 microliters of each solution is then pipetted onto the surface the diet in each cup. Each treatment is replicated 10 times.
Infestation: Once the treated cups have dried, a single second-instar tobacco budworm is placed on the treated diet in each cup.
Holding and assessment: Treated and infested diet cups or are capped and then held in a chamber at 25° C. and 50% relative humidity. 14-hours light:10-hours dark. 5 days after infestation the larvae are assessed for insecticidal effects.

[6] = tested on: Western Tarnished Plant Bug Lygus hesperus; assay: Insecticidal assay 13, western tarnished plant bug, sprayed egg-infested snow pea pods; settings: L. hesperus eggs and emergent nymphs; airbrush spray on egg-infested snow pea pods; assessed after 10 days
Procedure: 13. Insecticidal Assay for Western Tarnished Plant Bug Lygus hesperus:
Objective: Assessment of the insecticidal activity of compounds against L. hesperus through egg contact and contact/ingestion activity on emergent nymphs.
Test Unit preparation: Female lygus are allowed to oviposit on snow pea pods, these pods are then placed in plastic Petri dishes.
Formulation and application: Compounds are dissolved in acetone and further dilutes with water containing 0.025% Tween 20. The solutions are sprayed on the Petri dishes and the egg-infested snow pea pods using an airbrush.
Holding and assessment: The Petri dishes are held for 10 days under controlled conditions at which time the emerging nymphs are assessed for insecticidal effects.

Measured: insecticidal activity

N#Cc1c(NNc2c(Cl)cc(C(F)(F)F)cc2Cl)nc(C(F)(F)F)nc1C(F)(F)F [Compound 11, 4-[N′-(2,6-dichloro-4-trifluoromethyl-phenyl)-hydrazino]-2,6-bis-trifluoromethyl-pyrimidine-5-carbonitrile]
significant insecticidal activity: all assays above

— patent US8445500B2, “Pesticidal compositions” (Dow AgroSciences, LLC., priority 2007, dated 2013)
